SMILES strings stand for the structures. Like-named read-outs stand apart in the source and are kept apart here.

Usually IC50 stands for the midpoint of a concentration-inhibition curve. Broadly, the EC50 is the midpoint of the concentration-response curve.

For test [1], the target named is T1, HCV NS5B RdRp genotype 1b (Hepatitis C virus genotype 1b, UniProt Q9WMX2).
T1 construct: The protein was expressed with an 18 amino acid C-terminal truncation to enhance the solubility; made in house; host or cells: E. coli BL21(DE3), pET21a vector
The test can be described thus: Standard HCV NS5B RdRp enzyme assay. The test is classed as biochemical. To be noted: HCV NS5B RdRp genotype 1b, read-out: IC50. The method, boiled down: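 Radiometric SPA measuring 3H-UMP incorporation on polyA/biotin-oligo-dT12 (6 nM/180 nM), 0.29 μM total UTP. Enzyme: NS5B 1b lacking last 18 residues, 28 nM final, 30° C for 60 min in 20 mM Hepes pH 7.5, 2.5 mM MgCl2, 2% DMSO. IC50 from seven-point curves.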

In test [2] the test system is HCV replicon cells. In words: HCV replicon FRET / luciferase assay (96-well plates). The test is classed as cell-based. To be noted: Hepatitis C virus, HCV replicon, read-out: EC50. The method, boiled down:
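Percent activity is background-subtracted signal relative to untreated cell wells, with background taken from maximal protease-inhibitor wells. Cytotoxicity is Alamar blue fluorescence relative to controls. Replicon inhibition was read by NS3 FRET peptide cleavage (340/490 nm) or luciferase.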
Background: Replicon systems follow genome replication, usually without infectious particles.

T1 sequence (Q9WMX2 2420-2992): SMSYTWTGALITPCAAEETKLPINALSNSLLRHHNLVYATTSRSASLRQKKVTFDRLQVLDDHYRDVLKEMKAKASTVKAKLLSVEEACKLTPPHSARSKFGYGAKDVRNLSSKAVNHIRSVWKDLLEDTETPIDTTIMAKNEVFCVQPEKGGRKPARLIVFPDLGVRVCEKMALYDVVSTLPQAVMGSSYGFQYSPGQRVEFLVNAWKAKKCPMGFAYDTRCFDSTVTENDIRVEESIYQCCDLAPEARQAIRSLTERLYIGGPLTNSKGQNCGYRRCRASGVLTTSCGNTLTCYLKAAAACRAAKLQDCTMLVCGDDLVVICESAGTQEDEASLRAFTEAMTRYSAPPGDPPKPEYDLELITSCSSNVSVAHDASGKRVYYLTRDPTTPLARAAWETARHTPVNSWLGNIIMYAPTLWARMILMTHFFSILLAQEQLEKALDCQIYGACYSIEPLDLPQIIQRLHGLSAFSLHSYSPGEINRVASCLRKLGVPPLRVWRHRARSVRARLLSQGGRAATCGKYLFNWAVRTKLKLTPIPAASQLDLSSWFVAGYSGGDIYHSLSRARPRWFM

Regarding `CNC(=O)c1c(-c2ccc(F)cc2)oc2ccc(-c3ccc(C(=O)O)c(Cl)c3)cc12`, in test [1] (Table 1a), the IC50 fell in the range of 1000 to 10000 nM. In test [2] (Table 1a), the EC50 is above 10000 nM.

Turning to `CNC(=O)c1c(-c2ccc(F)cc2)oc2ccc(-c3cc(C(=O)NC4(c5ocnc5C)CC4)c(OC)cc3C)cc12`, the IC50 in test [1] (Table 1d (class symbols)) was 1 to 250 nM. For the same compound, the EC50 in test [2] (24 h, Table 1d (class symbols)) fell in the range of 1 to 250 nM.

In the case of `CNC(=O)c1c(-c2ccc(F)cc2)oc2ccc(-c3cc(C(=O)NCC(C)C)ccc3OCC3CCCN3)cc12` (centres unmarked), the IC50 in test [1] (Table 1b) was below 250 nM. Besides, in test [2] (Table 1b), the EC50 lay within 250 to 1000 nM.

In the case of `CNC(=O)c1c(-c2ccc(F)cc2)oc2ccc(-c3cccc(C(=O)N4CCCCC4C)c3)cc12` (centres unmarked) [drawing 611], in test [1] (untitled table after Table 1b), the IC50 amounted to 290 nM. Moreover, the EC50 in test [2] (untitled table after Table 1b, values without asterisk) was 1130 nM.

For the compound `CNC(=O)c1c(-c2ccc(F)cc2)oc2cc(NC(=O)COC)c(-c3cccc(C(=O)NC4(c5ccccc5)CC4)c3)cc12`, in test [1] (Table 1a), the IC50 fell in the range of 250 to 1000 nM. For the same compound, the EC50 in test [2] (Table 1a) is 250 to 1000 nM.

For the compound `CNC(=O)c1c(-c2ccc(F)cc2)oc2cc(NS(C)(=O)=O)c(-c3cccc(C(=O)NC(C)(C)c4ccccc4)c3)cc12`, in test [1] (Table 1a), the IC50 is below 250 nM. In test [2] (Table 1a), the EC50 was below 250 nM.

Consider `CNC(=O)c1c(-c2ccc(F)cc2)oc2ccc(-c3cccc(C(=O)NC(C)(C)C(=O)NC)c3)cc12`, for which, in test [1] (Table 1a), the IC50 was below 250 nM. In addition, the EC50 in test [2] (Table 1a) is below 250 nM.

In the case of `CNC(=O)c1c(-c2ccc(F)cc2)oc2ccc(-c3cccc(NC(C)=O)c3)cc12`, in test [1] (Table 1a), the IC50 lay within 1000 to 10000 nM. The EC50 in test [2] (Table 1a) was in the range of 1000 to 10000 nM.

Turning to `CNC(=O)c1c(-c2ccc(F)cc2)oc2ccc(-c3cccc(C(=O)Nc4ccccc4O)c3)cc12`, the IC50 in test [1] (Table 1a) was below 250 nM. For the same compound, the concentration giving a half-maximal response (EC50) in test [2] (Table 1a) was below 250 nM.

As to `C=CCNC(=O)C(C)(C)NC(=O)c1cccc(-c2ccc3oc(-c4ccc(F)cc4)c(C(=O)NC)c3c2)c1`, the concentration for half-maximal inhibition (IC50) in test [1] (Table 1a) was 250 to 1000 nM. The EC50 in test [2] (Table 1a) is 250 to 1000 nM.

Consider `CN1CN(C)c2c(-c3cccc(C(=O)NC(C)(C)c4ccccc4)c3)ccc3oc(-c4ccc(F)cc4)c(c23)C1=O`, for which, in test [1] (Table 1a), the IC50 was above 10000 nM. The EC50 in test [2] (Table 1a) is above 10000 nM.

Consider `CNC(=O)c1c(-c2ccc(F)cc2)oc2ccc(-c3cc(C(=O)CCC(C)C)ccc3OCCN(C)C)cc12`, for which the IC50 in test [1] (Table 1a) is below 250 nM. The EC50 in test [2] (Table 1a) is below 250 nM.

Take `CNC(=O)c1c(-c2ccc(F)cc2)oc2ccc(-c3cc(C(=O)NC(C)(C)C)c(OC)cc3C)c(F)c12`: the IC50 in test [1] (Table 1b) is below 250 nM. Besides, in test [2] (Table 1b), the EC50 is below 250 nM.

Consider `CNC(=O)c1cccc(-c2ccc3oc(-c4ccc(F)cc4)c(C(=O)NC)c3c2)c1`, for which the IC50 in test [1] (Table 1a) fell in the range of 1000 to 10000 nM. Moreover, the EC50 in test [2] (Table 1a) was in the range of 250 to 1000 nM.

As for `CNC(=O)c1c(-c2ccc(F)cc2)oc2ccc(-c3cccc(C(=O)N[C@@H]4CCc5ccc(O)cc54)c3)cc12`, the IC50 in test [1] (Table 1a) was above 1390 nM. Also, the EC50 in test [2] (Table 1a) was 250 to 1000 nM.

Regarding `CNC(=O)c1c(-c2ccc(F)cc2)oc2ccc(-c3cccc(C(=O)NCCC(C)(C)C)c3)cc12`, in test [1] (Table 1a), the IC50 is below 250 nM. Further, the EC50 in test [2] (Table 1a) is below 250 nM.

Take `CNC(=O)c1c(-c2ccc(F)cc2)oc2ccc(-c3cccc(C(=O)NCC(C)(C)C)c3)cc12`: the concentration for half-maximal inhibition (IC50) in test [1] (Table 1a) is below 250 nM. For the same compound, the EC50 in test [2] (Table 1a) was below 250 nM.

In the case of `CNC(=O)c1c(-c2ccc(F)cc2)oc2ccc(-c3cc(C(=O)NC(C)(C)C4CC4)ccc3C)cc12`, the IC50 in test [1] (Table 1b) was below 250 nM. Further, the 50% effective concentration (EC50) in test [2] (Table 1b) was below 250 nM.

Turning to `CNC(=O)c1c(-c2ccc(F)cc2)oc2ccc(-c3cccc(C(=O)NC(C)(C)c4nc(C)no4)c3)cc12`, in test [1] (Table 1b), the half-maximal inhibitory concentration (IC50) is below 250 nM. In addition, the EC50 in test [2] (Table 1b) is below 250 nM.

Consider `CNC(=O)c1c(-c2ccc(F)cc2)oc2cc(N(CCO)S(C)(=O)=O)c(-c3cccc(C(=O)NC4(c5ccccn5)CC4)c3)cc12`, for which, in test [1] (Table 1b), the concentration for half-maximal inhibition (IC50) is below 250 nM. For the same compound, in test [2] (Table 1b), the EC50 was below 250 nM.

As for `CNC(=O)c1c(-c2ccc(F)cc2)oc2ccc(-c3cccc(C(=O)Nc4ccccc4-c4ccccc4)c3)cc12`, the IC50 in test [1] (Table 1a) lay within 1000 to 10000 nM. The EC50 in test [2] (Table 1a) is below 250 nM.

For `CNC(=O)c1c(-c2ccc(F)cc2)oc2ccc(-c3cc(C(=O)NC4(c5ccccn5)CC4)c(OC)cc3OCC(N)=O)cc12`, in test [1] (Table 1b), the IC50 is below 20 nM. Further, the EC50 in test [2] (Table 1b) is below 250 nM.

These data come from patent US8309558B2, “Compounds for the treatment of hepatitis C” (Bristol-Myers Squibb Company, priority 2008, dated 2012).
